Laboratory results published in ChEMBL document CHEMBL3885861, “Open TG-GATES”.

Species: Rattus norvegicus
Assay: Open TG-GATES - Regimen: Single
Assay type: toxicity, organism-based, Sprague-Dawley
Parameters: regimen Single, gender Male, age 6 weeks
Details: in vivo, po, 100 mg/kg, route gavage, dose level Middle; for APTT / Bas / Eos / Fbg / Hb / Ht / Lym / MCH / MCHC / MCV / Mono / Neu / PT / Plat / RBC / Ret / WBC: tissue Blood; for KIDNEY_L / KIDNEY_R / KIDNEY_TOTAL: tissue Kidney; for LIVER: tissue Liver; for A/G / ALP / ALT / AST / BUN / CRE / Ca / Cl / DBIL / GLC / IP / K / LDH / Na / PL / RALB / TBIL / TC / TG / TP / gamma-GTP: tissue Plasma

CCCNC(=O)NS(=O)(=O)c1ccc(Cl)cc1 [CHLORPROPAMIDE]
TERMINAL_BW (3 h): 198.7 g
APTT (3 h): 19.6 s
Bas (3 h): 0%
Eos (3 h): 1%
Fbg (3 h): 311.8 mg/dL
Hb (3 h): 13.9 g/dL
Ht (3 h): 42.7%
Lym (3 h): 73.2%
MCH (3 h): 21.4 pg
MCHC (3 h): 32.5%
MCV (3 h): 66 fL
Mono (3 h): 3.8%
Neu (3 h): 20.8%
PT (3 h): 15.6 s
Plat (3 h): 113.1 x10_4/uL
RBC (3 h): 648.4 x10_4/ul
Ret (3 h): 9.2%
WBC (3 h): 72.2 x10_2/uL
KIDNEY_L (3 h): 0.9 g
KIDNEY_R (3 h): 0.9 g
KIDNEY_TOTAL (3 h): 1.8 g
LIVER (3 h): 8.8 g
A/G (3 h): 0.9
ALP (3 h): 1315.6 IU/L
ALT (3 h): 48.8 IU/L
AST (3 h): 80 IU/L
BUN (3 h): 11.2 mg/dL
CRE (3 h): 0.2 mg/dL
Ca (3 h): 10.8 mg/dL
Cl (3 h): 107.8 meq/L
DBIL (3 h): 0.01 mg/dL
GLC (3 h): 126.4 mg/dL
IP (3 h): 9.2 mg/dL
K (3 h): 3.8 meq/L
LDH (3 h): 71.6 IU/L
Na (3 h): 144.6 meq/L
PL (3 h): 129 mg/dL
RALB (3 h): 2.6 g/dL
TBIL (3 h): 0.02 mg/dL
TC (3 h): 74.6 mg/dL
TG (3 h): 71 mg/dL
TP (3 h): 5.7 g/dL
gamma-GTP (3 h): 1.4 IU/L
TERMINAL_BW (6 h): 194.9 g
APTT (6 h): 23.7 s
Bas (6 h): 0.2%
Eos (6 h): 1%
Fbg (6 h): 317 mg/dL
Hb (6 h): 13.6 g/dL
Ht (6 h): 41.9%
Lym (6 h): 71.6%
MCH (6 h): 21.7 pg
MCHC (6 h): 32.4%
MCV (6 h): 66.9 fL
Mono (6 h): 3.6%
Neu (6 h): 22.4%
PT (6 h): 15.1 s
Plat (6 h): 122.2 x10_4/uL
RBC (6 h): 627 x10_4/ul
Ret (6 h): 9.8%
WBC (6 h): 96.8 x10_2/uL
KIDNEY_L (6 h): 0.9 g
KIDNEY_R (6 h): 0.8 g
KIDNEY_TOTAL (6 h): 1.7 g
LIVER (6 h): 8 g
A/G (6 h): 0.9
ALP (6 h): 1525.8 IU/L
ALT (6 h): 44.2 IU/L
AST (6 h): 80.8 IU/L
BUN (6 h): 12.6 mg/dL
CRE (6 h): 0.2 mg/dL
Ca (6 h): 11 mg/dL
Cl (6 h): 109 meq/L
DBIL (6 h): 0.002 mg/dL
GLC (6 h): 123.8 mg/dL
IP (6 h): 9.9 mg/dL
K (6 h): 4 meq/L
LDH (6 h): 81 IU/L
Na (6 h): 143.8 meq/L
PL (6 h): 139.6 mg/dL
RALB (6 h): 2.6 g/dL
TBIL (6 h): 0.02 mg/dL
TC (6 h): 85.4 mg/dL
TG (6 h): 49.8 mg/dL
TP (6 h): 5.7 g/dL
gamma-GTP (6 h): 1.2 IU/L
TERMINAL_BW (9 h): 194.2 g
APTT (9 h): 17.1 s
Bas (9 h): 0%
Eos (9 h): 1%
Fbg (9 h): 307.8 mg/dL
Hb (9 h): 13.1 g/dL
Ht (9 h): 40.7%
Lym (9 h): 71.4%
MCH (9 h): 20.9 pg
MCHC (9 h): 32.3%
MCV (9 h): 64.8 fL
Mono (9 h): 3%
Neu (9 h): 24%
PT (9 h): 15.1 s
Plat (9 h): 119.5 x10_4/uL
RBC (9 h): 627.4 x10_4/ul
Ret (9 h): 10%
WBC (9 h): 82.5 x10_2/uL
KIDNEY_L (9 h): 0.9 g
KIDNEY_R (9 h): 0.9 g
KIDNEY_TOTAL (9 h): 1.8 g
LIVER (9 h): 7.8 g
A/G (9 h): 0.9
ALP (9 h): 1124.6 IU/L
ALT (9 h): 35.6 IU/L
AST (9 h): 77 IU/L
BUN (9 h): 9.8 mg/dL
CRE (9 h): 0.2 mg/dL
Ca (9 h): 10.7 mg/dL
Cl (9 h): 107.6 meq/L
DBIL (9 h): 0 mg/dL
GLC (9 h): 119.4 mg/dL
IP (9 h): 10.1 mg/dL
K (9 h): 3.9 meq/L
LDH (9 h): 68.6 IU/L
Na (9 h): 143.2 meq/L
PL (9 h): 120.4 mg/dL
RALB (9 h): 2.5 g/dL
TBIL (9 h): 0.026 mg/dL
TC (9 h): 70.8 mg/dL
TG (9 h): 37 mg/dL
TP (9 h): 5.4 g/dL
gamma-GTP (9 h): 1.2 IU/L
TERMINAL_BW (24 h): 210.9 g
APTT (24 h): 20 s
Bas (24 h): 0%
Eos (24 h): 1%
Fbg (24 h): 318.2 mg/dL
Hb (24 h): 12.6 g/dL
Ht (24 h): 39.1%
Lym (24 h): 73%
MCH (24 h): 21 pg
MCHC (24 h): 32.2%
MCV (24 h): 65.2 fL
Mono (24 h): 3.6%
Neu (24 h): 21%
PT (24 h): 15.8 s
Plat (24 h): 111.8 x10_4/uL
RBC (24 h): 599.4 x10_4/ul
Ret (24 h): 9.2%
WBC (24 h): 97.9 x10_2/uL
KIDNEY_L (24 h): 0.9 g
KIDNEY_R (24 h): 1 g
KIDNEY_TOTAL (24 h): 1.9 g
LIVER (24 h): 9.6 g
A/G (24 h): 0.9
ALP (24 h): 1496.2 IU/L
ALT (24 h): 45.4 IU/L
AST (24 h): 70.2 IU/L
BUN (24 h): 15.6 mg/dL
CRE (24 h): 0.2 mg/dL
Ca (24 h): 10.9 mg/dL
Cl (24 h): 105.8 meq/L
DBIL (24 h): 0.004 mg/dL
GLC (24 h): 177.4 mg/dL
IP (24 h): 8.4 mg/dL
K (24 h): 3.7 meq/L
LDH (24 h): 87.2 IU/L
Na (24 h): 143 meq/L
PL (24 h): 145 mg/dL
RALB (24 h): 2.6 g/dL
TBIL (24 h): 0.032 mg/dL
TC (24 h): 81.4 mg/dL
TG (24 h): 63.6 mg/dL
TP (24 h): 5.5 g/dL
gamma-GTP (24 h): 1 IU/L
